Reference: patent US20070249670A1, “Glycogen Phosphorylase Inhibitor Compounds and Pharmaceutical Compositions Thereof” (SMITHKLINE BEECHAM CORPORATION, priority 2004, published 2007)

Target: T1, human liver glycogen phosphorylase a (HLGPa) (Homo sapiens, UniProt P06737)
T1 construct: creating a full-length cDNA fused at the 5′ end to codons for methionine-glycine-alanine-histidine; 6xHis tag (leader Met-Gly-Ala-His6-Gly-Gly) (N); made in house; host or cells: E. coli (bacterial expression plasmid pTXK1007LTev)
T1 sequence (P06737 2-847 limits assumed): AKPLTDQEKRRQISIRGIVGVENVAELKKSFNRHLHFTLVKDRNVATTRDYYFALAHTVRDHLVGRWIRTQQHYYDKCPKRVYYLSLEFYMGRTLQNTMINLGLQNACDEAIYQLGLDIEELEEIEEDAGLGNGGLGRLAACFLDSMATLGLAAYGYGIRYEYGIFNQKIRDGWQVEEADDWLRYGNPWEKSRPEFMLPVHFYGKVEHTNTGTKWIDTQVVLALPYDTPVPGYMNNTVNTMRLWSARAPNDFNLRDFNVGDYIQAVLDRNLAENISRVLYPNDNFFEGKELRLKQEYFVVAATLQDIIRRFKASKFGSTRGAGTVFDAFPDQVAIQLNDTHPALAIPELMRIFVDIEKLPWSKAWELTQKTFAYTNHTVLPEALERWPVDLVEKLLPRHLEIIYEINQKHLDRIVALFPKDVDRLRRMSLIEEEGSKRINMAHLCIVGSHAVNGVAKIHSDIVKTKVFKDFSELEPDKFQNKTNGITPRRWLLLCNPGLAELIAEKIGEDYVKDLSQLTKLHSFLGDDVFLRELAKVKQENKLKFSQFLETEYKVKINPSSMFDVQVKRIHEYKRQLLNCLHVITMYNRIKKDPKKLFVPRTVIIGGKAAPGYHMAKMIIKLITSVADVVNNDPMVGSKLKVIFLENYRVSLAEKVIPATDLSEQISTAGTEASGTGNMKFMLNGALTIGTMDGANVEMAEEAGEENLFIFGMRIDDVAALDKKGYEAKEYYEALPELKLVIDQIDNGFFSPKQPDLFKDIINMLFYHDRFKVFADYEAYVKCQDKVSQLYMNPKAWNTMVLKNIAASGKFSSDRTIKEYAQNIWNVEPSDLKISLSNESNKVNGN
Experiment: Human liver glycogen phosphorylase a enzymatic activity assay (coupled, fluorescent resorufin readout, with and without 10 mM glucose)
Type: biochemical
Settings: human liver glycogen phosphorylase a enzymatic activity assay

Row | IC50 | SMILES
1 | 35 nM | Cc1cc(C)c(NC(=O)Nc2cc(Cl)ccc2C(=O)N[C@H](C(=O)O)C2CCCCC2)c(C)c1 [Example 179, (2S)-({[4-Chloro-2-({[(2,4,6-trimethylphenyl)amino]carbonyl}-amino)phenyl]carbonyl}amino)(cyclohexyl)ethanoic acid]
2 | 530 nM | Cc1cccc(C)c1NC(=O)Nc1ccccc1C(=O)N[C@H](C(=O)O)C1CCCCC1 [Example 94, (2S)-cyclohexyl{[2-({[(2,6-dimethylphenyl)amino]carbonyl}amino)benzoyl]amino}acetic acid]
3 | 3060 nM | COC(=O)[C@@H](NC(=O)c1cc(Cc2ccccc2)sc1NC(=O)Nc1c(Cl)cccc1Cl)C1CCCCC1 [Example 398, methyl(2S)-cyclohexyl({[2-({[(2,6-dichlorophenyl)amino]carbonyl}amino)-5-(phenylmethyl)-3-thienyl]carbonyl}amino)ethanoate]
4 | 7970 nM | CC[C@H](C)[C@H](NC(=O)c1c(NC(=O)Nc2c(Cl)cccc2Cl)sc2c1CCCC2)C(=O)O [Example 129, N-{[2-({[(2,6-dichlorophenyl)amino]carbonyl}amino)-4,5,6,7-tetrahydro-1-benzothien-3-yl]carbonyl}-L-isoleucine]
5 | 340 nM | Cc1cc(-c2ccccc2)cc(C)c1NC(=O)Nc1cc2ccccc2cc1C(=O)NC1(C(=O)O)CCCCCC1 [Example 518, 1-({[3-({[(3,5-dimethyl-4-biphenylyl)amino]carbonyl}amino)-2-naphthalenyl]carbonyl}amino)cycloheptanecarboxylic acid]
6 | 1040 nM | COc1ccc(-c2cc(C(=O)O)c(NC(=O)Nc3c(Cl)cccc3Cl)s2)cc1 [Example 412, 2-({[(2,6-dichlorophenyl)amino]carbonyl}amino)-5-[4-(methyloxy)phenyl]-3-thiophenecarboxylic acid]
7 | 540 nM | Cc1cccc(C)c1NC(=O)Nc1cc2ccccc2cc1C(=O)N[C@@H](Cc1cccs1)C(=O)O [Example 98, N-{[3-({[(2,6-dimethylphenyl)amino]carbonyl}amino)-2-naphthalenyl]carbonyl}-3-(2-thienyl)-L-alanine]
8 | 11 nM | COc1ccccc1-c1ccc(C(=O)N[C@H](C(=O)O)[C@@H](C)OC(C)(C)C)c(NC(=O)Nc2c(C)cc(C)cc2C)c1 [Example 524, O-(1,1-Dimethylethyl)-N-{[2′-(methyloxy)-3-({[(2,4,6-trimethylphenyl)amino]carbonyl}amino)-4-biphenylyl]carbonyl}-L-threonine]
9 | 32200 nM | Cc1cccc(C)c1NC(=O)Nc1sc2c(c1C(=O)N[C@H](C(=O)O)C(C)C)CCCC2 [Example 3, N-{[2-({[(2,6-dimethylphenyl)amino]carbonyl}amino)-4,5,6,7-tetrahydro-1-benzothien-3-yl]carbonyl}-L-valine]
10 | 370 nM | COc1ccc(-c2cc(NC(=O)Nc3c(C)cc(C)cc3C)c(C(=O)N3CCCC[C@H]3C(=O)O)s2)cc1 [Example 448, (2S)-1-{[5-[4-(methyloxy)phenyl]-3-({[(2,4,6-trimethylphenyl)amino]carbonyl}amino)-2-thienyl]carbonyl}-2-piperidinecarboxylic acid]
11 | 7260 nM | C[C@@H](O)[C@H](NC(=O)c1cc2ccccc2cc1NC(=O)Nc1ccccc1Cl)C(=O)O [Example 29, N-[3-({[(2-chlorophenyl)amino]carbonyl}amino)-2-naphthoyl]-L-threonine]
12 | 5200 nM | Cc1cccc(Cl)c1NC(=O)Nc1cc(Cl)ccc1C(=O)N[C@@H](CC(=O)O)C(=O)O [Example 88, N-[4-chloro-2-({[(2-chloro-6-methylphenyl)amino]carbonyl}amino)benzoyl]-L-aspartic acid]
13 | 220 nM | Cc1cc(Br)cc(C)c1NC(=O)Nc1cc2ccccc2cc1C(=O)N[C@H](C(=O)O)C1CCCCC1 [Example 458, (2S)-({[3-({[(4-bromo-2,6-dimethylphenyl)amino]carbonyl}amino)-2-naphthalenyl]carbonyl}amino)(cyclohexyl)ethanoic acid]
14 | 2140 nM | Cc1cccc(C)c1NC(=O)Nc1cc2ccccc2cc1C(=O)NC(C)CC(=O)O (stereo not drawn) [Example 500, 3-({[3-({[(2,6-dimethylphenyl)amino]carbonyl}amino)-2-naphthalenyl]carbonyl}amino)butanoic acid]
15 | 260 nM | Cn1cc(-c2cc(C(=O)N[C@H](C(=O)O)C3CCCCC3)c(NC(=O)Nc3c(Cl)cccc3Cl)s2)cn1 [Example 423, (2S)-cyclohexyl({[2-({[(2,6-dichlorophenyl)amino]carbonyl}amino)-5-(1-methyl-1H-pyrazol-4-yl)-3-thienyl]carbonyl}amino)ethanoic acid]
16 | 220 nM | Cc1cc(C)c(NC(=O)Nc2cc(-c3ccc(OC(F)(F)F)cc3)sc2C(=O)N[C@H](C(=O)O)C2CCCCC2)c(C)c1 [Example 437, (2S)-cyclohexyl({[5-{4-[(trifluoromethyl)oxy]phenyl}-3-({[(2,4,6-trimethylphenyl)amino]carbonyl}amino)-2-thienyl]carbonyl}amino)ethanoic acid]
17 | 860 nM | Cc1cccc(Cl)c1NC(=O)Nc1cc(F)c(F)cc1C(=O)N[C@H](C(=O)O)C1CCCCC1 [Example 112, (2S)-{[2-({[(2-chloro-6-methylphenyl)amino]carbonyl}amino)-4,5-difluorobenzoyl]amino}(cyclohexyl)acetic acid]
18 | 341 nM | O=C(Cc1c(Cl)cc(Cl)cc1Cl)Nc1cc(-c2ccccc2)ccc1C(=O)N[C@H](C(=O)O)C1CCCCC1 [Example 186, (2S)-Cyclohexyl{[(3-{[(2,4,6-trichlorophenyl)acetyl]amino}-4-biphenylyl)carbonyl]amino}ethanoic acid]
19 | 32 nM | COc1ccc(-c2ccc(C(=O)N[C@H](C(=O)O)C3CCCCC3)c(NC(=O)Nc3c(C)cccc3C)c2)cc1 [Example 191, (2S)-Cyclohexyl({[3-({[(2,6-dimethylphenyl)amino]carbonyl}amino)-4′-(methyloxy)-4-biphenylyl]carbonyl}amino)ethanoic acid]

Same assay, conditions: human liver glycogen phosphorylase a; table does not say whether with or without 10 mM glucose

Row | IC50 | SMILES
20 | 5080 nM | Cc1cc(C)c(NC(=O)Nc2cc3ccccc3cc2C(=O)N[C@@H](CC(=O)OC(C)(C)C)C(=O)OC(C)(C)C)c(C)c1 [Example 353, bis(1,1-dimethylethyl) N-{[3-({[(2,4,6-trimethylphenyl)amino]carbonyl}amino)-2-naphthalenyl]carbonyl}-L-aspartate]
21 | 1380 nM | O=C(Nc1cc2ccccc2cc1C(=O)NC1(C(=O)O)CCN(Cc2ccccc2)CC1)Nc1c(Cl)cccc1Cl [Example 286, 4-({[3-({[(2,6-Dichlorophenyl)amino]carbonyl}amino)-2-naphthalenyl]carbonyl}amino)-1-(phenylmethyl)-4-piperidinecarboxylic acid]
22 | 1 nM | COc1ccc(-c2ccc(C(=O)NC3(C(=O)O)CCCCCCC3)c(NC(=O)Nc3c(C)cc(C)cc3C)c2)cc1 [Example 231, 1-({[4′-(Methyloxy)-3-({[(2,4,6-trimethylphenyl)amino]carbonyl}amino)-4-biphenylyl]carbonyl}amino)cyclooctanecarboxylic acid]
23 | 920 nM | Cc1cc(C)c(NC(=O)Nc2cc(Cl)cnc2C(=O)N[C@H](C(=O)O)C2CCCCC2)c(C)c1 [Example 317, (2S)-({[5-chloro-3-({[(2,4,6-trimethylphenyl)amino]carbonyl}amino)-2-pyridinyl]carbonyl}amino)(cyclohexyl)ethanoic acid]
24 | 8600 nM | Cc1cc(C)c(NC(=O)Nc2cc3ccccc3cc2C(=O)N[C@H](C#N)C2CCC(F)(F)CC2)c(C)c1 [Example 342, N—[(S)-cyano(4,4-difluorocyclohexyl)methyl]-3-({[(2,4,6-trimethylphenyl)amino]carbonyl}amino)-2-naphthalenecarboxamide]
25 | 4280 nM | Cc1cc(C)c(NC(=O)Nc2cc(Cl)cnc2C(=O)N[C@H](C(=O)O)C(C)OC(C)(C)C)c(C)c1 (stereo in doubt) [Example 318, N-{[5-chloro-3-({[(2,4,6-trimethylphenyl)amino]carbonyl}amino)-2-pyridinyl]carbonyl}-O-(1,1-dimethylethyl)-L-threonine]
26 | 17400 nM | Cc1onc(-c2ccccc2)c1NC(=O)Nc1cc2ccccc2cc1C(=O)N[C@H](C(=O)O)C1CCCCC1 [Example 249, (2S)-cyclohexyl({[3-({[(5-methyl-3-phenyl-4-isoxazolyl)amino]carbonyl}amino)-2-naphthalenyl]carbonyl}amino)ethanoic acid]
27 | 190 nM | Cc1cc(C)c(NC(=O)Nc2cc(-c3ccc(OC(F)(F)F)cc3)ccc2C(=O)N[C@H](C(=O)O)C2CCCCC2)c(C)c1 [Example 204, (2S)-Cyclohexyl({[4′-[(trifluoromethyl)oxy]-3-({[(2,4,6-trimethylphenyl)amino]carbonyl}amino)-4-biphenylyl]carbonyl}amino)ethanoic acid]
